How the values were obtained:
[1] = tested on: human fetal kidney cells; experiment: Flow cytometry of renal progenitor surface markers after VPA; assay type: cell-based; settings: 24 h 4 mM VPA, FACS
Experimental: (§1) Cell Treatment: Cells were treated for 24 hours with growth medium supplemented with 1, 2, or 4 mM VPA (Sigma) or with H2O for control sample. Otherwise, cells were treated for 24 hours with growth medium supplemented with the combination of 75 μM TSA (Sigma) and 250 μM 5-AZA (Sigma) or with 100% Ethanol and Acetic Acid (Acetic Acid: H2O 1:1) for control sample. […] 24 hours prior to harvesting VPA at a concentration of 4 mM was added to the cell culture.
(§2) Flow Cytometry: Cells were detached from culture plated with non-enzymatic cell dissociation solution (Sigma-Aldrich). Cells (1×10^5 in each reaction) were suspended in 50 μl of FACS buffer [0.5% BSA and 0.02% sodium azid in PBS (Sigma-Aldrich and Invitrogen, respectively)] and blocked with FcR Blocking Reagent (MiltenyiBiotec) and human serum (1:1) for 15 minutes. Cells were then incubated for 45 minutes with the following primary antibodies: CD24-PE, NCAM1-PE, (both from eBioscience), CD133-APC, PSA-NCAM (both from MiltenyiBiotec), FZD7-biotin, NTRK2 (both from R&D Systems) or a matching isotype control. Cells were washed with FACS buffer, and incubated for 30 minutes with a secondary antibody if needed: goat anti mouse Streptavidin-APC (BD) or goat anti mouse Alexa Fluor 647 (Invitrogen). Cell's labeling was detected using FACSCalibur (BD). Flow cytometry results were analyzed using FlowJo analysis software. Viable cells were gated by both their FSC/SSC profile and 7AAD (eBioscience) exclusion.

[2] = tested on: human adult kidney cells; experiment: as above; assay type: cell-based; settings: 24 h 4 mM VPA, FACS
Experimental: as §1, §2

[3] = tested on: human fetal kidney cells; experiment: β-catenin immunofluorescence after VPA; assay type: cell-based; settings: valproic acid 24 hours, vs non-treated cells
Experimental: (§3) Immunofluorescence Staining: AK, FK (treated and untreated) human epithelial cell line and fibroblast cell line were fixed with acetone at −20° C. for seven minutes and washed with PBS. Cells were blocked with 7% human serum in PBS for 15 minutes followed by incubation with β-catenin antibody (1:150) (Chemicon international) for 60 minutes. Cells were washed and then incubated with secondary antibody with Cy-3 conjugated anti-mouse IgG (1:200) (Jackson) for 30 minutes. For nuclear staining, cells were washed with PBS containing Hochest (Dako). The presence of β-catenin was examined under a Zeiss confocal fluorescence microscope.

[4] = tested on: human adult kidney cells; experiment: β-catenin immunofluorescence after VPA; assay type: cell-based; settings: valproic acid 24 hours, vs non-treated cells
Experimental: as §3

[5] = tested on: Oct4 OE HAK cells; experiment: qRT-PCR of Oct4 over-expressing HAK cells with or without VPA; assay type: cell-based, human
[6] = tested on: human adult kidney cells; experiment: qRT-PCR gene expression after TSA/AzaC or VPA treatment; assay type: cell-based; settings: HAK cells, 24 h VPA, particularly in VPA-2 mM
[7] = tested on: human fetal kidney cells; experiment: Western blot for Six2 and Wt1 after VPA; assay type: cell-based; settings: 24 h after VPA exposure
Experimental: as §1
(§4) Western Blot: AK, FK (treated and untreated) and Melanoma cells were harvested with Tripsin/EDTA. Cell extracts were prepared with lysis buffer (50 mM Tris-HCl, 150 mM NaCl, 0.1 mM EDTA, 0.5 mM DTT, 1.5 mM MgCl, 0.5% Triton-X) and their concentrations were detected by BCA protein assay kit (Thermo scientific). 100 μg of total proteins were heated at 95° C. for 5 min with laemmli sample buffer (Bio-rad) and then were loaded on SDS-10% polyacrylamide gel. After electrophoresis, proteins were transferred to nitrocellulose membrane that was blocked with 5% nonfat dry milk overnight at 4° C. The membrane was reacted with the required antibodies, namely Six2 (Affinity Bioreagents), WT1 (Santa Cruz), goat anti-rabbit IgG (Jackson). The membrane was reacted with ECL substrate (Thermo scientific) and was exposed to medical x-ray film (Fuji).

[8] = tested on: human adult kidney cells; experiment: Western blot for Six2 and Wt1 after VPA; assay type: cell-based; settings: 24 h after VPA exposure
Experimental: as §1, §4

[9] = tested on: human fetal kidney cells; experiment: qRT-PCR gene expression after TSA/AzaC or VPA treatment; assay type: cell-based
From the text: (§5) Tissue Samples: human tissues samples were collected according to the Helsinki requirements. Human fetal kidney cells (HFK) were collected from elective abortions at fetal gestational age ranged from 15 to 19 weeks. Normal human adult kidney cell (HAK) samples were retrieved from borders of RCC tumors from partial nephrectomy patients. Establishment of Primary Cultures from Human Kidney Tissues: Collected tissues were minced in HBSS, soaked in IMDM Medium (Invitrogen) supplemented with 0.1% collagenase II (Invitrogen). The digested tissue was then gradually forced through a 100 μm, 70 μm and 50 μm cell strainer to achieve a single cell suspension, and cultured in growth medium supplemented with FBS 10%, L-Glutamin 1%, Pen-Strep 1% and growth factors: 50 ng/ml of bFGF, 50 ng/ml of EGF and 5 ng/ml of SCF (R&D systems). Cell Treatment: […] Otherwise, cells were treated for 24 hours with growth medium supplemented with the combination of 75 μM TSA (Sigma) and 250 μM 5-AZA (Sigma) or with 100% Ethanol and Acetic Acid (Acetic Acid: H2O 1:1) for control sample. […] 24 hours prior to harvesting VPA at a concentration of 4 mM was added to the cell culture. Quantitative Reverse Transcription-PCR: Total RNA from kidney tissue cultured cells was isolated using the TRIZOL reagent (Invitrogen) according to the manufacturer's protocols. cDNA synthesis was carried out using Verso kit (Thermo scientific) with Random primers. Quantitative RT PCR was performed using an ABI7900HT sequence detection system (Perkin-Elmer/Applied Biosystems) in the presence of SYBR green (SYBR green PCR kit; Qiagen). Each analysis reaction was performed in duplicates or triplicates. GapDH was used as an endogenous control throughout all experimental analyses. Analysis was performed using the −ΔΔCt method, which determines fold changes in gene expression relative to a comparator sample.

[10] = tested on: human adult kidney cells; experiment: as above; assay type: cell-based
From the text: as §5

[11] = HFK cells, 24 h, TSA/AzaC or VPA
[12] = HFK cells, 24 h, TSA/AzaC or VPA (lesser extent than Six2)
[13] = HAK cells, 24 h, TSA/AzaC or VPA 1-4 mM, vs untreated control
[14] = HAK cells, 24 h, TSA/AzaC or all VPA concentrations (1, 2, 4 mM)

CCCC(CCC)C(=O)O [VPA, valproic acid]
CD133 surface expression [1]: milder changes
NCAM surface expression levels [1]: significant upregulation
PSA-NCAM surface expression levels [1]: significant upregulation
PSA-NCAM surface expression elevation ([2]; especially in the adult kidney): 5-10 fold
CD133 surface expression ([2]; adult kidney cells): milder changes
NCAM surface expression levels ([2]; adult kidney cells): significant upregulation
β-catenin immunofluorescence localisation [3]: cyoplasmic and nuclear accumulation
β-catenin immunofluorescence localisation [4]: cyoplasmic and nuclear accumulation
Six2 expression, VPA exposure combined with Oct4 OE [5]: higher Six2 expression pattern compared to each of the single manipulations
Oct4 mRNA expression change [6]: significantly up-regulated
Six2 protein levels ([7]; 4 mM): increment
Wt1 protein levels ([7]; 2 and 4 mM): no changes
Six2 protein levels ([8]; 4 mM): increment
Wt1 protein levels ([8]; 2 and 4 mM): no changes
Klf4 mRNA increase ([9]; HFK cells, 24 h, 4 mM VPA): two-five
Nanog mRNA increase ([9]; HFK cells, 24 h, 4 mM VPA): two-five
Oct4 mRNA increase ([9]; HFK cells, 24 h, 4 mM VPA): two-five
E-cadherin mRNA expression change [9, 11]: significantly elevated
Pax2 mRNA expression change [9, 11]: mild elevation
Wt1 mRNA expression change [9, 11]: reduction
Osr1 mRNA expression change [9, 12]: dose-dependent activation
Sall1 mRNA expression change [9, 12]: dose-dependent activation
Six2 mRNA induction ([9]; HFK cells, 24 h VPA, dose-dependent): four-fold
Wnt4 mRNA levels ([9]; VPA-treated fetal kidney cells): strong up-regulation
β-catenin mRNA levels ([9]; VPA-treated fetal kidney cells): elevation
Six2 mRNA reinduction ([10]; HAK cells, 24 h, TSA 75 μM + 5-AZA 250 μM, or VPA 1, 2, 4 mM (dose-dependent), vs untreated control): five-fold
Vimentin mRNA expression change ([10]; HAK cells, 24 h, TSA/AzaC or VPA): mostly unchanged
Osr1 mRNA expression change (re-activation) [10, 13]: upregulated in a dose-dependent manner
Pax2 mRNA expression change (re-activation) [10, 13]: mildly elevated
Sall1 mRNA expression change (re-activation) [10, 13]: upregulated in a dose-dependent manner
Wt1 mRNA expression change (re-activation) [10, 13]: reduced
Klf4 mRNA expression change [10, 14]: significantly up-regulated
Nanog mRNA expression change [10, 14]: significantly up-regulated
E-cadherin mRNA expression change ([10]; HAK cells, 24 h, TSA/AzaC, or VPA (effect at 2 mM, 4 mM)): mildly elevated
Oct4 mRNA expression change ([10]; HAK cells, 24 h treatment): remained unchanged
Wnt4 mRNA levels ([10]; VPA-treated adult kidney cells): strong up-regulation
β-catenin mRNA levels ([10]; VPA-treated adult kidney cells): elevation

Reference: US9770469B2, “Methods of reprogramming renal cells” (Tel HaShomer Medical Research Infrastructure and Services …, priority 2009, dated 2017)
